# Measurements: patent publication US20240041042A1, “1-(PYRIDYL)-5-AZINYLPYRAZOLE DERIVATIVES, AND THEIR USE FOR CONTROL OF UNDESIRED PLANT GROWTH” (Bayer Aktiengesellschaft, priority 2020, published 2024)
# Read-outs that look alike come from different tables or passages of the source.
# Legend:
# Type in all cases: in vivo
# Setaria viridis (SETVI) [1] = assay: Post-emergence herbicidal action against SETVI; details: dosage 320 g/ha
# Outline: (§1)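 Doses of 320 g/ha or lower, suffixes a, b and c marking different dosages, were applied post-emergence at the one-leaf stage in 600 l/ha water with 0.5% additive. Damage was assessed visually after about 3 weeks in the greenhouse.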
# Oryza sativa (ORYSA) [2] = details: crop plant compatibility, effect in comparison to untreated controls
# Outline: (§2)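 Greenhouse crops in sandy loam sprayed post-emergence at the one-leaf stage, 2–3 weeks after sowing, with WP or EC formulations in water plus 0.5% additive at 600 l/ha. Damage rated visually about 3 weeks later versus untreated controls (0% = like control, 100% = dead); suffixes a–c denote different doses.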
# [3] = system: Triticum aestivum (TRZAS); details: crop plant compatibility, effect vs untreated controls
# Outline: as §2
# Zea mays (ZEAMX) [4] = details: crop plant compatibility, effect vs untreated controls
# Outline: as §2
# Oryza sativa (ORYSA) [5] = details: pre-emergence, crop plant compatibility, in comparison to untreated controls
# Outline: (§3)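 Scoring: visual, % of untreated control, about 3 weeks after a pre-emergence application to the soil surface. Application used WP or EC formulations diluted in water with 0.5% additive at 600 l/ha; dosage levels are marked by suffixes a, b and c.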
# [6] = system: Triticum aestivum (TRZAS); details: pre-emergence, crop plant compatibility, in comparison to untreated controls
# Outline: as §3
# Zea mays (ZEAMX) [7] = details: pre-emergence, 80 g/ha, crop plant compatibility, in comparison to untreated controls
# Outline: as §3
# [8] = system: Pharbitis purpurea (PHBPU); assay: Post-emergence herbicidal action against PHBPU
# Outline: as §1
# Lolium rigidum (LOLRI) [9] = assay: Post-emergence herbicidal action against LOLRI; details: dosage 320 g/ha
# Outline: as §1
# [10] = system: Pharbitis purpurea (PHBPU); assay: Pre-emergence herbicidal action against PHBPU; details: dosage 320 g/ha
# Outline: (§4)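 Greenhouse pot trial: seeds sown, soil-covered, sprayed before emergence with compound in water (0.5% additive; 600 l/ha; ≤320 g/ha). Scoring visual, ~3 weeks, 0–100% scale vs untreated.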
# [11] = system: Echinochloa crus-galli (ECHCG); assay: Post-emergence herbicidal action against ECHCG; details: dosage 320 g/ha
# Outline: as §1
# [12] = system: Verconica persica (VERPE); assay: Post-emergence herbicidal action against VERPE
# Outline: as §1
# Lolium rigidum (LOLRI) [13] = assay: Pre-emergence herbicidal action against LOLRI; details: dosage 320 g/ha
# Outline: as §4
# [14] = system: Amaranthus retroflexus (AMARE); assay: Pre-emergence herbicidal action against AMARE; details: 320 g/ha, visual scoring after about 3 weeks vs untreated controls
# Outline: as §4
# Setaria viridis (SETVI) [15] = assay: Pre-emergence herbicidal action against SETVI; details: dosage 320 g/ha
# Outline: as §4
# [16] = system: Matricaria inodora (MATIN); assay: Pre-emergence herbicidal action against MATIN; details: dosage 320 g/ha
# Outline: as §4
# [17] = system: Polygonum convolvulus (POLCO); assay: Post-emergence herbicidal action against POLCO; details: dosage 320 g/ha
# Outline: as §1
# [18] = system: Amaranthus retroflexus (AMARE); assay: Post-emergence herbicidal action against AMARE; details: 320 g/ha, visual rating about 3 weeks after treatment
# Outline: as §1
# [19] = system: Verconica persica (VERPE); assay: Pre-emergence herbicidal action against VERPE
# Outline: as §4
# [20] = system: Alopecurus myosuroides (ALOMY); assay: Pre-emergence herbicidal action against ALOMY; details: 320 g/ha; scored visually after about 3 weeks; 100% = plants have died
# Outline: as §4
# Viola tricolor (VIOTR) = assay: Post-emergence herbicidal action against VIOTR; details: 320 g/ha
# Outline: as §1
# [21] = system: Alopecurus myosuroides (ALOMY); assay: Post-emergence herbicidal action against ALOMY; details: 320 g/ha, visual rating about 3 weeks after treatment vs untreated controls (100% = plants have died, 0% = like control plants)
# Outline: as §1
# [22] = system: Abutilon theophrasti (ABUTH); assay: Post-emergence herbicidal action against ABUTH; details: 320 g/ha, visual rating about 3 weeks after treatment vs untreated controls (100% = plants have died, 0% = like control plants)
# Outline: as §1
# [23] = system: Echinochloa crus-galli (ECHCG); assay: Pre-emergence herbicidal action against ECHCG; details: dosage 320 g/ha
# Outline: as §4
Post-emergence action against ORYSA in % (Oryza sativa (ORYSA) [2]; 80 g/ha),Post-emergence action against ORYSA in % (Oryza sativa (ORYSA) [2]; 320 g/ha),Post-emergence action against TRZAS in % ([3]; 80 g/ha),Post-emergence action against TRZAS in % ([3]; 320 g/ha),Post-emergence action against ZEAMX in % (Zea mays (ZEAMX) [4]; 80 g/ha),Pre-emergence action against ORYSA in % (Oryza sativa (ORYSA) [5]; 80 g/ha),Pre-emergence action against TRZAS in % ([6]; 80 g/ha),Pre-emergence action against ZEAMX in % (Zea mays (ZEAMX) [7]),SMILES,Post-emergence action against SETVI in % (Setaria viridis (SETVI) [1]),Post-emergence action against PHBPU in % ([8]; dosage 80 g/ha),Post-emergence action against PHBPU in % ([8]; dosage 320 g/ha),Post-emergence action against LOLRI in % (Lolium rigidum (LOLRI) [9]),Pre-emergence action against PHBPU in % [10],Post-emergence action against ECHCG in % [11],"Post-emergence action against VERPE in % ([12]; 320 g/ha, VERPE)",Pre-emergence action against LOLRI in % (Lolium rigidum (LOLRI) [13]),Pre-emergence action against AMARE in % [14],Pre-emergence action against SETVI in % (Setaria viridis (SETVI) [15]),Pre-emergence action against MATIN in % [16],further results
0%,10%,10%,10%,0%,20%,10%,20%,COC(=O)CNC(=O)COc1nn(-c2cccc(C)n2)c(-c2ccc(F)nc2)c1Br [Example I-357],80%,80%,80%,–,–,–,–,–,–,–,–,Post-emergence action against ZEAMX in % (Zea mays (ZEAMX) [4]; 320 g/ha): 10%; Pre-emergence action against ORYSA in % (Oryza sativa (ORYSA) [5]; 320 g/ha): 20%; Pre-emergence action against TRZAS in % ([6]; 320 g/ha): 10%
0%,10%,0%,–,20%,0%,0%,0%,COC(=O)CCOC(=O)COc1nn(-c2cccc(C)n2)c(-c2ccc(F)nc2)c1Br [Example I-278],90%,80%,80%,80%,80%,80%,90%,80%,80%,100%,80%,Post-emergence action against VERPE in % ([12]; dosage 80 g/ha): 80%
0%,20%,0%,20%,10%,20%,10%,10%,Cc1cccc(-n2nc(OCC(=O)O)c(Br)c2-c2ccc(F)nc2)n1 [Example I-376],80%,–,80%,90%,90%,90%,80%,90%,90%,100%,80%,Post-emergence action against POLCO in % [17]: 80%; Post-emergence action against AMARE in % [18]: 80%; Pre-emergence action against VERPE in % ([19]; dosage 80 g/ha): 80%; Pre-emergence action against VERPE in % ([19]; dosage 320 g/ha): 80%; Pre-emergence action against ALOMY [20]: 80%; Post-emergence action against VIOTR in % (Viola tricolor (VIOTR)): 80%; Post-emergence action against ALOMY in % [21]: 80%; Post-emergence action against ABUTH in % [22]: 80%; Pre-emergence action against ECHCG in % [23]: 90%
